Values quoted from earlier work in paper PMC11484942, “Rumicidins are a family of mammalian host-defense peptides plugging the 70S ribosome exit tunnel” (Nature Communications, 2024).

System: E. coli strains
Settings: cited from earlier work
Source text: This highly cationic fragment is important for both high affinity binding of Bac7 to the ribosome and its penetration inside bacterial cells. The effect of N-terminal shortening of rumicidin-1 was not so marked: activities of the analogs 4-29 and 6-29 decreased only two-fold, while the MIC values of the analogs 9-29 and 11-29 against E. coli were ≥4- ...

Substance | fold increase in MIC on deletion of four N-terminal residues (RRIR)
Bac7[5-23]: Bac7 fragment lacking four N-terminal residues (RRIR) (PRPPRLPRPRPRPLPFPRP; Bactenecin-7; UniProt P19661 135-153, looked up, fragment) | ≥ 16 fold
Bac7[5-35]: Bac7 fragment lacking four N-terminal residues (RRIR) (PRPPRLPRPRPRPLPFPRPGPRPIPRPLPFP; Bactenecin-7; UniProt P19661 135-165, looked up, fragment) | ≥ 16 fold
